# ChEMBL document CHEMBL1142029, “Design, synthesis, and biological activity of novel PPARgamma ligands based on rosiglitazone and 15d-PGJ2” (Bioorg Med Chem Lett, 2005)
# The source made the active and inactive calls. No cut-off for these calls is given here.
# Biological target: T1, Peroxisome proliferator-activated receptor gamma (Homo sapiens) (UniProt P37231)
# T1 sequence (whole entry): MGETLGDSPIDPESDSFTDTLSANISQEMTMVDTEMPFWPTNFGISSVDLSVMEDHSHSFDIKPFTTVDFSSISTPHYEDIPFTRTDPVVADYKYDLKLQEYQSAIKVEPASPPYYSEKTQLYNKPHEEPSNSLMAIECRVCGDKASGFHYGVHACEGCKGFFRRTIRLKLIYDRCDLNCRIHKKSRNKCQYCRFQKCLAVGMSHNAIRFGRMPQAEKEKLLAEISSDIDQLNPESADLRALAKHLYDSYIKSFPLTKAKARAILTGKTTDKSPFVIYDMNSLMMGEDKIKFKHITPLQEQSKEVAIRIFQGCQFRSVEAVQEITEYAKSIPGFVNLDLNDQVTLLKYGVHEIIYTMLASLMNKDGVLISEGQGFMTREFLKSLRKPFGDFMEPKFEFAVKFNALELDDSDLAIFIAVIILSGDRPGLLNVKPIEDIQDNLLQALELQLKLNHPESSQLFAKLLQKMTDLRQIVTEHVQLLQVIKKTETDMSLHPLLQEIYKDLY
# Assay: Binding affinity for peroxisome proliferator-activated receptor gamma: weak activity
row,Activity,Compound
1,Weak activity,O=C(O)CCc1ccc(OCCN(c2ccccn2)c2ccccn2)cc1
2,Weak activity,O=C(O)CCc1ccc(OCCn2c3ccccc3c3ccncc32)cc1
3,Weak activity,O=C(O)CCc1ccc(OCCN(c2ccccc2)c2ccccn2)cc1

# Biological target: T1, Peroxisome proliferator-activated receptor gamma (Homo sapiens)
# Assay: Binding affinity for peroxisome proliferator-activated receptor gamma: more active
row,Activity,Compound
1,Active,CCCCCCCN(CCOc1ccc(CCC(=O)O)cc1)c1ccccn1
2,Active,CCCCCCCCN(CCOc1ccc(CCC(=O)O)cc1)c1ccccn1

# Biological target: T1, Peroxisome proliferator-activated receptor gamma (Homo sapiens)
# Assay: Binding affinity for peroxisome proliferator-activated receptor gamma: active
row,Activity,Compound
1,Active,CCN(CCOc1ccc(CCC(=O)O)cc1)c1ccccn1
2,Active,CCCCCN(CCOc1ccc(CCC(=O)O)cc1)c1ccccn1
3,Active,CN(CCOc1ccc(CCC(=O)O)cc1)c1ccccn1
4,Active,CCCN(CCOc1ccc(CCC(=O)O)cc1)c1ccccn1
5,Active,CCCCCCCCCCN(CCOc1ccc(CCC(=O)O)cc1)c1ccccn1
6,Active,CCCCCCN(CCOc1ccc(CCC(=O)O)cc1)c1ccccn1
7,Active,CCCCN(CCOc1ccc(CCC(=O)O)cc1)c1ccccn1
